From patent US11104648B2, “Pyrazole derivative” (Zhejiang Research Institute of Chemical Industry Co., Ltd., priority 2018, dated 2021)
Where two headings read alike, the source gives them in different places.

Columns and labels:
Assay type in all cases: in vivo
[1] = test system: Eggs of Tetranychus Cinnabarinus; assay: Activity assay of eggs of Tetranychus cinnabarinus (spray method, ovicidal); conditions: Tetranychus cinnabarinus; for pest or weed control at 2 µg/mL: concentration 2 mg/L
How it was run: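 Ovicidal spray test: compound dissolved in DMF, diluted with 1‰ Tween 80 (DMF ≤10%), sprayed on eggs laid during 24 h by females on broad bean leaves. Culture at 26±2° C, 70–80% RH, 16 h photoperiod; non-hatched eggs scored as dead when blank control hatched; three repeats.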

[2] = test system: adult Tetranychus cinnabarinus; assay: Activity assay of adult Tetranychus cinnabarinus (whole-plant spray on bean seedlings); conditions: 48 h; for pest or weed control at 1.25 µg/mL: concentration 1.25 mg/L
How it was run: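 Whole plants sprayed after adult mite inoculation and initial census, using compound dissolved in DMF and made up with 1‰ Tween 80 water (DMF not above 10%). Mortality derived from survivor counts at 48 h after treatment. Each treatment run in triplicate.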

[3] = test system: Tetranychus cinnabarinus Nymphs; assay: Activity assay of Tetranychus cinnabarinus nymphs (spray on broad bean leaves)
How it was run: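 Mortality, judged as no response to gentle touch, was scored 48 h after spraying Tetranychus cinnabarinus nymphs on broad bean leaves (eggs from females removed after 24 h). Test solutions: DMF-dissolved compound, ≤10% DMF, in 1‰ Tween 80; 26±2° C., 70%–80% RH, 16 h light; triplicate, blank control.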

[4] = concentration 5 mg/L, spray, non-incubated eggs counted as dead, read-out: ovicidal activity
[5] = concentration 2.5 mg/L, read-out: adult mite-killing activity
[6] = 48 h, concentration 2.5 mg/L, read-out: nymph-killing activity
[7] = spray, read-out: ovicidal activity
[8] = eggs, parallel determination, read-out: Death rate (%)
[9] = adult mites, parallel determination, read-out: Death rate (%)
[10] = read-out: adult mite-killing activity
[11] = 48 h, concentration 2 mg/L, read-out: nymph-killing activity
[12] = 48 h, nymphs, concentration 0.5 mg/L, parallel determination, read-out: Death rate (%)
[13] = concentration 2.5 mg/L, 48 h, read-out: nymph-killing activity

Compound	pest or weed control at 5 µg/mL [1, 4] [%]	pest or weed control at 2.5 µg/mL [2, 5] [%]	pest or weed control at 2.5 µg/mL [3, 6] [%]	further results
CCn1nc(C)c(C)c1/C(OC(C)OC(=O)c1ccccc1)=C(\C#N)c1ccc(C(C)(C)C)cc1 (stereo not drawn) [Compound 414]	≥ 90	≥ 90	≥ 95	
CCn1nc(C)cc1/C(OC(C)OC(C)=O)=C(\C#N)c1ccc(C(C)(C)C)cc1 (stereo not drawn) [Compound 251]	≥ 90	≥ 90	≥ 95	pest or weed control at 2 µg/mL [1, 7]: ≥ 90%; pest or weed control at 2 µg/mL [1, 8]: 100%; pest or weed control at 1.25 µg/mL [2, 9]: 100%; pest or weed control at 1.25 µg/mL [2, 10]: ≥ 90%; pest or weed control at 2 µg/mL [3, 11]: ≥ 90%; pest or weed control at 0.5 µg/mL [3, 12]: 100%
CCn1nc(C)cc1/C(OC(C)OC(=O)C1CC1)=C(\C#N)c1ccc(C(C)(C)C)cc1 (stereo not drawn) [Compound 259]	≥ 90	≥ 90	≥ 95	pest or weed control at 2 µg/mL [1, 7]: ≥ 90%; pest or weed control at 1.25 µg/mL [2, 10]: ≥ 90%; pest or weed control at 2 µg/mL [3, 11]: ≥ 90%
Cc1cc(/C(OCOC(=O)OCC(C)C)=C(\C#N)c2ccc(C(C)(C)C)cc2)n(C)n1 [Compound 457]	≥ 90	≥ 90	≥ 95	
Cc1cc(/C(OCOC(=O)C(F)(F)F)=C(\C#N)c2ccc(C(C)(C)C)cc2)n(C)n1 [Compound 13]	≥ 90	≥ 90	≥ 95	
CCC(=O)OC(C)O/C(=C(/C#N)c1ccc(C(C)(C)C)cc1)c1cc(C)nn1C (stereo not drawn) [Compound 27]	≥ 90	≥ 90	≥ 95	
CCn1nc(C)c(Cl)c1/C(OCOC(=O)C(F)(F)F)=C(\C#N)c1ccc(C(C)(C)C)cc1 [Compound 313]	≥ 90	≥ 90	≥ 95	
Cc1nn(C)c(/C(OC(C)OC(=O)C(C)C)=C(\C#N)c2ccc(C(C)(C)C)cc2)c1Cl (stereo not drawn) [Compound 104]	≥ 90	≥ 90	≥ 95	
CCCC(=O)OCO/C(=C(/C#N)c1ccc(C(C)(C)C)cc1)c1c(C)c(C)nn1C [Compound 153]	≥ 90	≥ 90	≥ 95	
CCC(C)(C)C(=O)OCO/C(=C(/C#N)c1ccc(C(C)(C)C)cc1)c1c(Cl)c(C)nn1C [Compound 91]	≥ 90	≥ 90	≥ 95	
Cc1nn(C)c(/C(OC(C)OC(=O)C2CCCCC2)=C(\C#N)c2ccc(C(C)(C)C)cc2)c1C (stereo not drawn) [Compound 186]	≥ 90	≥ 90	≥ 95	
Cc1nn(C)c(/C(OC(C)OC(=O)c2ccccc2)=C(\C#N)c2ccc(C(C)(C)C)cc2)c1C (stereo not drawn) [Compound 189]	≥ 90	≥ 90	≥ 95	
Cc1cc(/C(OCOC(=O)OCC(F)(F)F)=C(\C#N)c2ccc(C(C)(C)C)cc2)n(C)n1 [Compound 467]	≥ 90	≥ 90	≥ 95	
Cc1cc(/C(OC(C)OC(=O)OC(C)C)=C(\C#N)c2ccc(C(C)(C)C)cc2)n(C)n1 (stereo not drawn) [Compound 486]	≥ 90	≥ 90	≥ 95	
Cc1nn(C)c(/C(OC(C)OC(=O)Cc2ccccc2)=C(\C#N)c2ccc(C(C)(C)C)cc2)c1C (stereo not drawn) [Compound 190]	≥ 90	≥ 90		pest or weed control at 2.5 µg/mL [3, 13]: ≥ 95%
CCn1nc(C)cc1/C(OC(C)OC(=O)C(C)(C)CC)=C(\C#N)c1ccc(C(C)(C)C)cc1 (stereo not drawn) [Compound 266]	≥ 90	≥ 90	≥ 95	
C=CC(=O)OCO/C(=C(/C#N)c1ccc(C(C)(C)C)cc1)c1c(C)c(C)nn1CC [Compound 392]	≥ 90	≥ 90	≥ 95	
Cc1nn(C)c(/C(OC(C)OC(=O)C(C)C)=C(\C#N)c2ccc(C(C)(C)C)cc2)c1C (stereo not drawn) [Compound 179]	≥ 90	≥ 90	≥ 95	
CCn1nc(C)c(Cl)c1/C(OC(C)OC(=O)C(C)C)=C(\C#N)c1ccc(C(C)(C)C)cc1 (stereo not drawn) [Compound 329]	≥ 90	≥ 90	≥ 95	
Cc1cc(/C(OCOC(=O)CF)=C(\C#N)c2ccc(C(C)(C)C)cc2)n(C)n1 [Compound 12]				pest or weed control at 5 µg/mL ([1]; read-out: ovicidal activity): ≥ 90%; pest or weed control at 2.5 µg/mL [2, 10]: ≥ 90%; pest or weed control at 2.5 µg/mL ([3]; 48 h, read-out: nymph-killing activity): ≥ 95%
C#CCOC(=O)OCO/C(=C(/C#N)c1ccc(C(C)(C)C)cc1)c1cc(C)nn1C [Compound 476]	≥ 90	≥ 90	≥ 95	
CCn1nc(C)c(C)c1/C(OCOC(=O)OC)=C(\C#N)c1ccc(C(C)(C)C)cc1 [Compound 931]	≥ 90	≥ 90	≥ 95	pest or weed control at 2 µg/mL [1, 7]: ≥ 90%; pest or weed control at 2 µg/mL [1, 8]: 98%; pest or weed control at 1.25 µg/mL [2, 9]: 95%; pest or weed control at 1.25 µg/mL [2, 10]: ≥ 90%; pest or weed control at 2 µg/mL [3, 11]: ≥ 90%; pest or weed control at 0.5 µg/mL [3, 12]: 95%
Cc1nn(C)c(/C(OC(C)OC(=O)CC(C)C)=C(\C#N)c2ccc(C(C)(C)C)cc2)c1Cl (stereo not drawn) [Compound 107]	≥ 90	≥ 90	≥ 95	
Cc1nn(C)c(/C(OCOC(=O)Cc2ccccc2)=C(\C#N)c2ccc(C(C)(C)C)cc2)c1Cl [Compound 90]	≥ 90	≥ 90		pest or weed control at 2.5 µg/mL [3, 13]: ≥ 95%
CCn1nc(C)c(Cl)c1/C(OCOC(=O)COC)=C(\C#N)c1ccc(C(C)(C)C)cc1 [Compound 308]	≥ 90	≥ 90	≥ 95	
CCC(=O)OCO/C(=C(/C#N)c1ccc(C(C)(C)C)cc1)c1cc(C)nn1C [Compound 2]	≥ 90	≥ 90	≥ 95	
CCn1nc(C)c(Cl)c1/C(OCOC(=O)CSC)=C(\C#N)c1ccc(C(C)(C)C)cc1 [Compound 310]	≥ 90	≥ 90	≥ 95	
CCCC(=O)OC(C)O/C(=C(/C#N)c1ccc(C(C)(C)C)cc1)c1cc(C)nn1CC (stereo not drawn) [Compound 253]	≥ 90	≥ 90	≥ 95	
Cc1cc(/C(OC(C)OC(=O)OCC(C)C)=C(\C#N)c2ccc(C(C)(C)C)cc2)n(C)n1 (stereo not drawn) [Compound 489]	≥ 90	≥ 90	≥ 95	
CCC(=O)OCO/C(=C(/C#N)c1ccc(C(C)(C)C)cc1)c1c(Cl)c(C)nn1CC [Compound 302]	≥ 90	≥ 90	≥ 95	pest or weed control at 2 µg/mL [1, 7]: ≥ 90%; pest or weed control at 2 µg/mL [1, 8]: 97%; pest or weed control at 1.25 µg/mL [2, 9]: 96%; pest or weed control at 1.25 µg/mL [2, 10]: ≥ 90%; pest or weed control at 2 µg/mL [3, 11]: ≥ 90%; pest or weed control at 0.5 µg/mL [3, 12]: 96%
